PMC10769483, “Death by a thousand cuts through kinase inhibitor combinations that maximize selectivity and enable rational multitargeting” (eLife, 2023)

Tests used:
[1] = system: CDC2L5 and TRKC
[2] = system: ABL1(F317L), FYN, and LYN; assay: MMS multiple-target analysis, Davis et al. dataset

SMILES	concentration of component in Mixture B required to inhibit all on-targets by at least 90% [1]	concentration of component in Mixture A required to inhibit all on-targets by at least 90% [2]
Cc1ccc(F)c(NC(=O)Nc2ccc(-c3cccc4[nH]nc(N)c34)cc2)c1 [ABT-869, Linifanib]	226 nM	–
COc1cc2c(Oc3ccc(NC(=O)C4(C(=O)Nc5ccc(F)cc5)CC4)cc3F)ccnc2cc1OCCCN1CCOCC1 [EXEL-2880/GSK-1363089, Foretinib]	40.0 nM	–
CSc1cccc(Nc2ncc3cc(-c4c(Cl)cccc4Cl)c(=O)n(C)c3n2)c1 [PD-173955]	–	4.69 nM
Cc1ccc(NC(=O)c2ccc(CN3CCN(C)CC3)cc2)cc1Nc1nc(-c2cccnc2)cs1 [masatinib, Masitinib]	–	661 nM
